Assay results published in paper PMC5703966, “Systemic clearance and brain distribution of carbazole-based cyanine compounds as Alzheimer’s disease drug candidates” (Scientific Reports, 2017).
Where two headings read alike, the source gives them in different places.

How the values were obtained:
[1] = Liver microsomes stability with NADPH; format: in vitro ADME; details: human; for CLint scaled at 1 μM / microsomal CLint at 1 μM: liver microsomes, pH 7.4; for CLint scaled at 1 μM: read-out: Microsomes Cl int,scaled; for Microsomes scaled Cl hep: well-stirred model; for Microsomes Cl u, int,app: Cl int,app / f u,mic; for microsomal CLint at 1 μM: NADPH, read-out: Microsomes Cl int,app
[2] = Hepatocyte binding by RED device; format: in vitro ADME
Description: The blood cell partitioning was calculated as follows. […] Plasma, liver microsomes and hepatocyte binding by RED device The stability of the compounds in plasma, liver microsomes and hepatocyte were studied to ensure the reliability of the binding data. Hepatocyte was deactivated by leaving them on a bench for 2 days and going through a freeze thaw cycle thereafter. […] Natural logarithm of peak area ratios (compound peak area normalized by IS peak area) were plotted against time and half-life calculated. The spiked plasma solutions, microsomes and hepatocytes (400 µL) after observing stability were placed into the sample chamber (indicated by the red ring) with 400 µL of PBS into the adjacent chamber. […] The experimental procedure outlined in the Thermo Scientific RED device systems brochure was adopted in the present study . The several positive controls were assayed (Table S4). […] For control experiments, NADPH, UDPGA and/or liver microsomes were omitted from these incubations. […] InVitroGROTM HT Medium was used for thawing suspension of cryopreserved hepatocytes. Incubations were conducted in a 96-well flat-bottom polystyrene plate in duplicate. […] 60, 90, 120 minutes by the addition of 4 folds ACN containing berberine chloride as internal standard 5

[3] = tested on: WT and 3 × Tg-AD mice; experiment: Systemic clearance and brain distribution in WT and 3 × Tg-AD mice (8 months); format: in vivo, mouse; details: for K in: 1 mg/kg i.v.; for K puu,brain in AD mice relative to WT mice: higher in AD mice
Description: (§1) The transgenic (Tg) AD mice (B6; 129-Psen1 ^tm1Mpm Tg (APPSwe, tauP301L) 1Lfa/Mmjax) and the corresponding wild-type (WT) (B6129SF2/J) mice was obtained from the Jackson Laboratory (Bar Harbor, Maine, USA), and maintained by the Animal Facility of Faculty of Health Sciences in University of Macau. Either 27 WT or AD mice (8 months) were randomly separated into 9 groups with 3 mice at each time point. Blood and brain were collected at time points 0.083, 0.167, 0.25, 0.5, 1, 2, 4, 8 and 16 hours after i.v. dosing (1 mg/kg). Mice were euthanized by isoflurane followed by cervical dislocation. All the plasma, urine, bile and brain samples were stored at −70 °C for subsequent analysis. The analytical methods for systemic and brain PK parameters were shown in supplemental information (Supplemental Methods).
(§2) Parameters in animals were determined using non-compartmental analysis. […] Systemic Cl p was calculated as the i.v. dose divided by AUC0−∞ ^iv. The terminal rate constant (K el) was calculated by a linear regression of the log-linear concentration-time curve, and the terminal elimination t 1/2 was calculated as 0.693 divided by K el. Mean residence time from t = 0 to infinity (MRT 0−∞) was calculated as AUMC 0−∞ divided by AUC 0−∞. Apparent steady-state distribution volume (Vd ss) was determined as Cl p multiplied by MRT 0−∞. […] The Cl bile was derived as the amount of (in milligrams) of SLM or SLOH in the bile over the 24-hour interval postdose/AUC0-24h. The influx clearance into brain (K in) was calculated by using the amount of drug in the brain (homogenate) at time t (A, brain (t)) (corrected for the amount of drug remaining in the cerebral vasculature) divided by plasma exposure up to this time point (AUC, plasma (0 − t)). The C u,brain was calculated by A brain (homogenate, ng/g brain) divided by V u,brain (mL/g brain). The unbound ISF to plasma ratio (K puu,brain) was calculated by unbound AUC 0−t of ISF (ng/mL × min) divided by unbound AUC 0–t (ng/mL × min) of plasma.

[4] = as above; format: in vivo, mouse; details: mouse; for Kp: brain interstitial fluid (unbound) versus plasma (unbound), read-out: K puu,brain; for clearance / Vd / half-life / MRT inf: plasma; for Vd: read-out: Vdss; for MRT inf: read-out: MRT 0−∞
Description: as §1, §2

[5] = Brain distribution by brain slices experiment; format: in vitro ADME, mouse; details: mouse
Description: The unbound volume of distribution in the brain (V u, brain) was determined in fresh brain slices using the protocol published by Friden et al.[25].

[6] = human deactivated hepatocytes 0.5 million cells/mL
[7] = mouse deactivated hepatocytes 0.5 million cells/mL
[8] = 3×Tg-AD (B6;129-Psen1tm1Mpm Tg(APPSwe,tauP301L)1Lfa/Mmjax), iv, 1 mg/kg, AD mice 8 months, 1 mg/kg i.v.
[9] = 3×Tg-AD (B6;129-Psen1tm1Mpm Tg(APPSwe,tauP301L)1Lfa/Mmjax), iv, AD mice 8 months, 1 mg/kg i.v., read-out: Cl p (converted)
[10] = 3×Tg-AD (B6;129-Psen1tm1Mpm Tg(APPSwe,tauP301L)1Lfa/Mmjax), iv, AD mice 8 months, 1 mg/kg i.v.
[11] = B6129SF2/J (WT) and 3×Tg-AD, intravenous, 1 mg/kg, WT and AD mice (8 months), no significant difference, read-out: plasma clearance (converted)
[12] = B6129SF2/J (wild-type), iv, 1 mg/kg, WT mice 8 months, 1 mg/kg i.v.
[13] = B6129SF2/J (wild-type), iv, WT mice 8 months, 1 mg/kg i.v.
[14] = B6129SF2/J (wild-type), iv, WT mice 8 months, 1 mg/kg i.v., read-out: Cl p (converted)
[15] = iv, AD mice 8 months, 1 mg/kg i.v.

Compound | CLint scaled at 1 μM [1] | Microsomes scaled Cl hep [1] | Microsomes Cl u, int,app [1] | microsomal CLint at 1 μM [1] | f u,hep, % [2, 6] | f u,hep, % [2, 7] | K in ([3]; AD mice 8 months) | K in ([3]; WT mice 8 months) | K puu,brain in AD mice relative to WT mice [3] | Kp [4, 8] | clearance [4, 9] | Vd [4, 10] | clearance [4, 11] | Kp [4, 12] | half-life [4, 13] | clearance [4, 14] | MRT inf [4, 13] | Vd [4, 13] | half-life [4, 15] | MRT inf [4, 15] | further results
COCCOCCn1c2ccccc2c2cc(/C=C/c3cc[n+](C)c4ccccc34)ccc21.[I-] [SLM, (E)-4-(2-(9-(2-(2-methoxyethoxy)ethyl)-9H-carbazol-3-yl)-vinyl)-1-methyl-quinolin-1-iumiodide] | 140 ± 19 mL/min/kg | 1.67 ± 0.167 mL/min/kg | 1.50 ± 0.200^$ mL/min/mg | 110 ± 20 µL/min/mg | 11.0 ± 0.870^$$ % | 15.0 ± 4.60% | 4.10 ± 1.10 μL/min per g brain | 1.70 ± 0.630 μL/min per g brain | 4 fold | 11 | 13.2 mL/min/kg | 1.3 ± 0.32 L/kg | ~11.7 mL/min/kg | 2.5 ± 0.44 | 6 ± 1 h | 11.3 mL/min/kg | 1.5 ± 0.18 h | 1.3 ± 0.58 L/kg | 3.5 ± 1 h | 1.7 ± 0.55 h | V u,brain (AD) [5]: 1.50 ± 0.580 mL/g brain; V u,brain (WT) [5]: 2.10 ± 0.650 mL/g brain
COCCOCCn1c2ccccc2c2cc(/C=C/c3cc[n+](CCO)c4ccccc34)ccc21 [SLOH, (E)-1-(2-hydroxyethyl)-4-(2-(9-(2-(2-metho-xyethoxy)-ethyl)-9H-carbazol-3-yl)vinyl) quinolin-1-ium chloride] | 82 ± 13 mL/min/kg | 2 ± 0.333 mL/min/kg | 1.00 ± 0.160^$ mL/min/mg | 70 ± 10 µL/min/mg | 5.50 ± 0.730^$$ % | 16.0 ± 5.50% | 4.00 ± 0.500 μL/min per g brain | 1.10 ± 0.100 μL/min per g brain | 8 fold | 8.1 | 10 mL/min/kg | 2.3 ± 0.71 L/kg | ~10 mL/min/kg | 0.98 ± 0.22 | 4.3 ± 1.1 h | 7.5 mL/min/kg | 3 ± 1.2 h | 2.1 ± 0.45 L/kg | 4.8 ± 1.2 h | 2.9 ± 0.38 h | V u,brain (AD) [5]: 1.20 ± 0.240 mL/g brain; V u,brain (WT) [5]: 1.40 ± 0.400 mL/g brain
